Structures can show the parent of a compound that is named as a salt.
Assays:
[1] = Measurement of oral absorbability (plasma AUC after oral administration); settings: in vivo, 0.1 mmol/kg in physiological saline, male ICR mouse, plasma concentration of 9-[1'S,2'R-bis(hydroxymethyl)cyclopropan-1'-yl]methylguanine by HPLC, 15 minutes to 4 hours
Experimental: Each of the test compounds was dissolved in 0.2 ml of physiological saline and orally administered to 5-week-age male ICR mouse in a dose of 0.1 mmol/kg. After 15 minutes, 30 minutes, 1 hour, 2 hours, or 4 hours from the administration, blood was collected from three mice, respectively, and centrifuged at 3,000 rpm for 10 minutes to obtain a plasma. A 20 % trichloroacetic acid aqueous solution (100 µl) was added to the plasma (100 µl), and the resulting mixture was shaken and then centrifuged at 8,000 rpm for 1 minutes to obtain a supernatant. The concentration of 9-[1'S,2'R-bis(hydroxymethyl)cyclopropan-1'-yl]methylguanine in the supernatant was measured by HPLC and the area under the blood concentration time curve (AUC) was calculated.

HSV-1 (Tomioka strain) = assay: Efficacy test by oral administration in HSV-1 infected mice; assay type: in vivo, CDF-1 mouse; parameters: Survival Ratio after 21 days: unit: %; settings: for Average Survival days / Survival Ratio after 21 days: HSV-1 i.p. infected CDF-1 mice; for Survival Ratio after 21 days: 10 mice per group
Experimental: A 4-week-age male CDF-1 mouse was intraperitoneally infected with HSV-1 (Tomioka strain) in an amount of 2.4 × 10⁵ pfu/mouse. Three hours after the infection, administration of each test compound was started. The test compound was dissolved in 0.2 ml of distilled water for injection use and intragastrically administered via catheter once a day for 5 days in a dose of 0.625, 1.25, or 2.5 µmol/kg/day. Each of the test groups consisted of 10 mice, and the survival ratio after 21 days from the administration and the average survival days were obtained.

[2] = 0.625 µmol/kg/day intragastrically once a day for 5 days
[3] = 1.25 µmol/kg/day intragastrically once a day for 5 days
[4] = 2.5 µmol/kg/day intragastrically once a day for 5 days

SMILES	AUC at 4 h [1]	Average Survival days (HSV-1 (Tomioka strain); [2])	Survival Ratio after 21 days (HSV-1 (Tomioka strain); [2])	Average Survival days (HSV-1 (Tomioka strain); [3])	Survival Ratio after 21 days (HSV-1 (Tomioka strain); [3])	Average Survival days (HSV-1 (Tomioka strain); [4])	Survival Ratio after 21 days (HSV-1 (Tomioka strain); [4])	efficacy (HSV-1 (Tomioka strain); in words, compared with 9-[1'S,2'R-bis(hydroxymethyl)cyclopropan-1'-yl]methylguanine)
Nc1nc2c(ncn2C[C@]2(CO)C[C@H]2CO)c(=O)[nH]1 [9-[1'S,2'R-bis(hydroxymethyl)cyclopropan-1'-yl]methylguanine]	16 µM·h	7.8 ± 1.2 days	0	9.4 ± 1.9 days	0	11.3 ± 3.1 days	60	–
C[C@H](N)C(=O)OC[C@@H]1C[C@@]1(COC(=O)[C@H](C)N)Cn1cnc2c(=O)[nH]c(N)nc21 [Compound of Example 1, 9-[1'S,2'R-bis(O-L-alanyloxymethyl)cyclopropan-1'-yl]methylguanine trihydrochloride]	–	9.7 ± 2.7 days	40	14.3 ± 4.1 days	60	–	100	superior efficacy
